What was measured:
Conditions in all cases: incubation time: 72 h
CAL-148 [1] = experiment: normalised response (% of control), CellTox Green; higher = less cell death (100 = DMSO, 0 = benzethonium chloride kill control)
Summary of the method: (§1)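 Each entry is the normalised signal at a single concentration within a series. The series comprised 5 concentrations in 10-fold steps over a compound-specific 10,000-fold range, placed in 384-well plates into which breast cancer cell lines were seeded as 20 µl suspension and incubated 72 h. CellTox Green (485/520 nm) fluorescence and then CellTiter-Glo luminescence were read, with signals normalised per plate to 0.1 % DMSO (100) and a positive kill control (0).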

MDA-MB-468 [2] = experiment: as above
Summary of the method: as §1

MDA-MB-231 [3] = experiment: as above
Summary of the method: as §1

MDA-MB-453 [4] = experiment: as above
Summary of the method: as §1

BT-549 [5] = experiment: as above
Summary of the method: as §1

DU-4475 [6] = experiment: as above
Summary of the method: as §1

MCF-10A [7] = experiment: as above
Summary of the method: as §1

HCC1143 [8] = experiment: as above
Summary of the method: as §1

BT-474 [9] = experiment: as above
Summary of the method: as §1

MFM-223 [10] = experiment: as above
Summary of the method: as §1

Hs578T [11] = experiment: as above
Summary of the method: as §1

CAL-51 [12] = experiment: as above
Summary of the method: as §1

HCC1937 [13] = experiment: as above
Summary of the method: as §1

CAL-85-1 [14] = experiment: as above
Summary of the method: as §1

HDQ-P1 [15] = experiment: as above
Summary of the method: as §1

CAL-120 [16] = experiment: as above
Summary of the method: as §1

MDA-MB-436 [17] = experiment: as above
Summary of the method: as §1

HCC1599 [18] = experiment: as above
Summary of the method: as §1

CAL-148 [19] = experiment: normalised response (% of control), CellTiter-Glo; higher = more viable cells (100 = DMSO, 0 = benzethonium chloride kill control)
Summary of the method: as §1

MDA-MB-468 [20] = experiment: as above
Summary of the method: as §1

MDA-MB-231 [21] = experiment: as above
Summary of the method: as §1

MDA-MB-453 [22] = experiment: as above
Summary of the method: as §1

BT-549 [23] = experiment: as above
Summary of the method: as §1

DU-4475 [24] = experiment: as above
Summary of the method: as §1

MCF-10A [25] = experiment: as above
Summary of the method: as §1

HCC1143 [26] = experiment: as above
Summary of the method: as §1

BT-474 [27] = experiment: as above
Summary of the method: as §1

MFM-223 [28] = experiment: as above
Summary of the method: as §1

Hs578T [29] = experiment: as above
Summary of the method: as §1

CAL-51 [30] = experiment: as above
Summary of the method: as §1

HCC1937 [31] = experiment: as above
Summary of the method: as §1

CAL-85-1 [32] = experiment: as above
Summary of the method: as §1

HDQ-P1 [33] = experiment: as above
Summary of the method: as §1

CAL-120 [34] = experiment: as above
Summary of the method: as §1

SK-BR-3 = experiment: as above
Summary of the method: as §1

MDA-MB-436 [35] = experiment: as above
Summary of the method: as §1

HCC1599 [36] = experiment: as above
Summary of the method: as §1

Row | Structure (SMILES) | normalised response (CAL-148 [1]) [%] | normalised response (MDA-MB-468 [2]) [%] | normalised response (MDA-MB-231 [3]) [%] | normalised response (MDA-MB-453 [4]) [%] | normalised response (BT-549 [5]) [%] | normalised response (DU-4475 [6]) [%] | normalised response (MCF-10A [7]) [%] | normalised response (HCC1143 [8]) [%] | normalised response (BT-474 [9]) [%] | normalised response (MFM-223 [10]) [%] | normalised response (Hs578T [11]) [%] | normalised response (CAL-51 [12]) [%] | normalised response (HCC1937 [13]) [%] | normalised response (CAL-85-1 [14]) [%] | normalised response (HDQ-P1 [15]) [%] | normalised response (CAL-120 [16]) [%] | normalised response (MDA-MB-436 [17]) [%] | normalised response (HCC1599 [18]) [%] | normalised response (CAL-148 [19]) [%] | normalised response (MDA-MB-468 [20]) [%] | normalised response (MDA-MB-231 [21]) [%] | normalised response (MDA-MB-453 [22]) [%] | normalised response (BT-549 [23]) [%] | normalised response (DU-4475 [24]) [%] | normalised response (MCF-10A [25]) [%] | normalised response (HCC1143 [26]) [%] | normalised response (BT-474 [27]) [%] | normalised response (MFM-223 [28]) [%] | normalised response (Hs578T [29]) [%] | normalised response (CAL-51 [30]) [%] | normalised response (HCC1937 [31]) [%] | normalised response (CAL-85-1 [32]) [%] | normalised response (HDQ-P1 [33]) [%] | normalised response (CAL-120 [34]) [%] | normalised response (SK-BR-3) [%] | normalised response (MDA-MB-436 [35]) [%] | normalised response (HCC1599 [36]) [%]
1 | C/C(=C\c1csc(C)n1)[C@@H]1C[C@@H]2O[C@]2(C)CCC[C@H](C)[C@H](O)[C@@H](C)C(=O)C(C)(C)[C@@H](O)CC(=O)N1 [Ixabepilone] (10 nM) | 94.7 | 123 | 102 | 93.6 | 82.4 | 104 | 84.4 | 80.8 | 98.7 | 95.7 | 84 | 102 | 107 | 99 | 101 | 102 | 86.6 | 101 | 102 | 93.7 | 98.6 | 101 | 102 | 104 | 108 | 102 | 100 | 105 | 107 | 86 | 95.4 | 97.5 | 102 | 102 | 113 | 106 | 95.2
2 | CN(C)C(=N)NC(=N)N [Metformin] (1000 nM) | 95.7 | 61 | 63.5 | 91 | 70.4 | 91.6 | -3.22 | 85.4 | 92 | 101 | 105 | 71.1 | 93.4 | 97.9 | 70.7 | 96.5 | 71.8 | 95.2 | 102 | 90.3 | 94.1 | 84.3 | 103 | 88.4 | 77 | 102 | 96.3 | 83.2 | 102 | 65.9 | 93.2 | 97.7 | 98 | 104 | 81.9 | 108 | 95.9
3 | CN(Cc1cnc2nc(N)nc(N)c2n1)c1ccc(C(=O)N[C@@H](CCC(=O)O)C(=O)O)cc1 [Methotrexate] (500 nM) | 102 | 118 | 84.1 | 106 | 99.2 | 105 | 96.5 | 114 | 102 | 101 | 87.8 | 104 | 112 | 98.4 | 102 | 100 | 105 | 102 | 106 | 101 | 111 | 110 | 102 | 105 | 104 | 96.4 | 101 | 105 | 102 | 95.3 | 27.3 | 95.6 | 57 | 81.8 | 108 | 91.9 | 118
4 | Cc1cn(-c2cc(NC(=O)c3ccc(C)c(Nc4nccc(-c5cccnc5)n4)c3)cc(C(F)(F)F)c2)cn1 [Nilotinib] (100 nM) | 93.5 | 123 | 110 | 85.7 | 97.5 | 102 | 99.2 | 109 | 102 | 61.4 | 85.3 | 96.3 | 103 | 105 | 68.1 | 85.9 | 103 | 105 | 106 | 103 | 94.9 | 96.3 | 115 | 103 | 104 | 94.2 | 99 | 96 | 97.6 | 81.9 | 95.4 | 107 | 105 | 94.4 | 96.3 | 100 | 106
5 | CC[C@H](CO)Nc1nc(NCc2ccccc2)c2ncn(C(C)C)c2n1 [Seliciclib] (100 nM) | 108 | 102 | 96 | 104 | 102 | 101 | 104 | 82.7 | 97.1 | 107 | 100 | 105 | 118 | 92.4 | 105 | 98.4 | 61.4 | 109 | 112 | 102 | 99.8 | 114 | 102 | 104 | 97.1 | 106 | 105 | 107 | 104 | 101 | 94.2 | 98.6 | 101 | 97.6 | 106 | 105 | 110
6 | C=CCN(/C=C1/C(=O)O[C@H](COC)[C@@]2(C)C1=C(O)C(=O)C1=C2[C@H](OC(C)=O)C[C@]2(C)C(=O)CC[C@@H]12)CC=C [Sonolisib] (100 nM) | 98.6 | 112 | 110 | 106 | 108 | 106 | 72.8 | 117 | 96.5 | 109 | 73.7 | 102 | 121 | 106 | 63.5 | 101 | 107 | 115 | 116 | 105 | 107 | 102 | 106 | 105 | 108 | 105 | 106 | 107 | 94.7 | 85.2 | 99.7 | 109 | 102 | 109 | 107 | 106 | 104
